We go through 123 compounds from a melting point compilation (Tetko et al.).

Usually melting point stands for the temperature of the solid-liquid transition. The compound `Cc1cc(C(=O)O)c2c(-c3ccco3)noc2n1` came in with a melting point of 232 to 234 °C.

`CN1C(=O)Cc2cc(S)ccc21` had a melting point of 104 to 106 °C.

`Cc1cccc(N2CC(C(=O)O)CC2=O)c1C` (stereo not drawn) showed a melting point of 211 to 213 °C.

Compound `COC(=O)c1c[nH]c(=O)c([N+](=O)[O-])c1` had a melting point of 214 to 216 °C.

The compound `Nc1ccnc(-c2ccccc2)c1` returned a melting point of 126 to 128 °C.

`COc1cc(CCl)c(OC)cc1Br` displayed a melting point of 65 to 67 °C.

On to `O=C(O)CNC(=O)c1ccc(F)cc1F`, for which the melting point is 139 to 141 °C.

In turn, `O=C(CN1C(=O)CCC1=O)c1ccccc1` yielded a melting point of 144 to 146 °C.

In turn, `CN(C(=O)c1ccc(Cl)cc1)c1ccc(N)cc1` registered a melting point of 152 to 154 °C.

For `CC(C)c1nnc(S)[nH]1`, the melting point is 156 to 158 °C.

With `N#CC1(CS(N)(=O)=O)CC1`, the melting point is 109 to 111 °C.

The compound `CC(=O)c1ccc(S(=O)(=O)NCc2ccco2)cc1` displayed a melting point of 107 to 109 °C.

Take `CCNc1ccc(C#N)cn1`: the melting point lay in the range of 88 to 90 °C.

The compound `COc1cc(C=O)ccc1OCC(=O)N1CCOCC1` yielded a melting point of 98 to 100 °C.

The compound `O=C(O)c1cccn1Cc1ccccc1` displayed a melting point of 124 to 126 °C.

Compound `CCOC(=O)c1ccn2nc3ncccc3c2n1` showed a melting point of 209 to 211 °C.

`Nc1cccc(-c2n[nH]c3c2CCCC3)c1`: the melting point fell in the range of 159 to 161 °C.

Compound `CCNC(=O)Nc1cccc([N+](=O)[O-])c1` came in with a melting point of 141 to 143 °C.

`NCc1ccc(N2CCN(c3ccccn3)CC2)nc1`: the melting point is 107 to 109 °C.

Consider `CCCS(=O)(=O)Nc1cccc(N)c1`, for which the melting point was in the range of 63 to 65 °C.

For `N#CC1(NC(=O)c2ccccc2)CCCCC1`, the melting point fell in the range of 135 to 137 °C.

Consider `O=Cc1ccnc(-c2ccccc2)n1`, for which the melting point fell in the range of 116 to 118 °C.

In turn, `N#Cc1ccc(S(=O)(=O)NC2CC2)cc1` gave a melting point of 99 to 101 °C.

Regarding `COC(=O)c1ccc2n[nH]c(=O)n2c1`, the melting point lay within 225 to 227 °C.

For `Cc1nc(-c2ccc(Cl)cc2)cs1`, the melting point is 119 to 121 °C.

The compound `Nc1nc2ccc(OCC(F)(F)F)cc2s1` came in with a melting point of 134 to 136 °C.

For `O=C(O)C(=O)c1ccc2c(c1)CCCC2`, the melting point fell in the range of 70 to 72 °C.

In the case of `COc1cccc(-c2nn(Cc3ccccc3)cc2C(=O)O)c1`, the melting point lay in the range of 174 to 176 °C.

The compound `Cc1ccc2c(C)c(CCC(=O)O)c(=O)oc2c1` gave a melting point of 161 to 163 °C.

For the compound `O=C(O)c1cc2ccccc2cc1I`, the melting point is 215 to 217 °C.

On to `CN(C)S(=O)(=O)c1ccc(Cl)c(C(=O)O)c1`, for which the melting point was 181 to 183 °C.

The compound `OCc1c(Cl)ccc2cccnc12` registered a melting point of 93 to 95 °C.

In turn, `Cc1ccc2[nH]c3c(c2c1)CCCC3=O` showed a melting point of 185 to 187 °C.

`Cc1cc(NC(=O)C(C)Cl)on1` (stereo not drawn) gave a melting point of 78 to 80 °C.

`O=C(O)CCCCCc1ccc(I)cc1` registered a melting point of 65 to 67 °C.

In turn, `COC(=O)Nc1ccc(O)cc1` gave a melting point of 115 to 117 °C.

Take `O=C(CCl)Nc1ccc(Cl)cn1`: the melting point lay in the range of 142 to 144 °C.

On to `C#CCNC(=O)C(C)Cl` (stereo not drawn), for which the melting point is 61 to 63 °C.

Take `CCOC(=O)c1[nH]c(C)c(C(=O)O)c1C`: the melting point fell in the range of 103 to 105 °C.

With `NNC(=O)NC1CCCC1`, the melting point lay within 124 to 126 °C.

The compound `CCN1C(=O)C(=O)c2cc(Br)ccc21` registered a melting point of 144 to 146 °C.

`O=c1c2c([nH]c3ccc(Oc4ccccc4)cc13)CCCC2` displayed a melting point of 319 to 321 °C.

As for `COc1ccc(C(=O)NCCCC(=O)O)cc1`, the melting point was in the range of 122 to 124 °C.

`O=C1CCCc2nc(-c3ccccc3)sc21` came in with a melting point of 119 to 121 °C.

Consider `Cc1cc2c(N3CCCC3C(=O)O)ncnc2s1` (stereo not drawn), for which the melting point fell in the range of 129 to 131 °C.

`O=[N+]([O-])c1cncc(Br)c1Cl` returned a melting point of 45 to 47 °C.

`FC(F)(F)Oc1ccc(-n2nnnc2S)cc1`: the melting point lay within 123 to 125 °C.

Take `N#CCc1cc(Br)ccc1F`: the melting point was in the range of 43 to 45 °C.

With `CC(O)c1ccccc1-c1ccccc1` (stereo not drawn), the melting point was in the range of 104 to 106 °C.

In turn, `CCS(=O)(=O)c1ccc(Br)cc1` showed a melting point of 53 to 55 °C.

`Cn1c(=O)[nH]c2ccccc2c1=O` came in with a melting point of 242 to 244 °C.

Compound `COC(=O)c1cc(F)cc(Br)c1N` registered a melting point of 36 to 38 °C.

As for `O=C(O)CCSc1ccnc2cc(Cl)ccc12`, the melting point fell in the range of 209 to 211 °C.

`CC(C)(C)c1csc(-c2ccc(O)cc2)n1` registered a melting point of 228 to 230 °C.

Take `CCOC(=O)c1c(C2CC2)csc1N`: the melting point was 70 to 72 °C.

In turn, `Clc1ccccc1Nc1nc2ccccc2s1` had a melting point of 126 to 128 °C.

`C#CCSc1cccc(C(=O)O)c1` registered a melting point of 121 to 123 °C.

Turning to `Nc1cccc(-c2noc(C3CC3)n2)c1`, the melting point lay within 69 to 71 °C.

As to `Cc1sc2nc(CCl)nc(Cl)c2c1C`, the melting point fell in the range of 142 to 144 °C.

Take `CC(C)Nc1ccc(Br)cc1[N+](=O)[O-]`: the melting point lay within 97 to 99 °C.

As for `Nc1cc2c(cc1Cl)NC(=O)CO2`, the melting point was 227 to 229 °C.

Compound `O=C(O)CCc1ccc(F)cc1F` displayed a melting point of 108 to 110 °C.

For the compound `COc1ccccc1NC(=O)COc1ccc(C(=O)O)cc1OC`, the melting point fell in the range of 184 to 186 °C.

`O=S(=O)(c1ccccc1)c1ccc(O)cc1`: the melting point was in the range of 135 to 137 °C.

In the case of `O=C(O)CC(O)(c1nccn1Cc1ccccc1)C(F)(F)F` (stereo not drawn), the melting point was in the range of 152 to 154 °C.

On to `CCCc1ncc(C(=O)O)s1`, for which the melting point is 135 to 137 °C.

Take `COc1ccc(C2=CCNCC2)cc1`: the melting point fell in the range of 73 to 75 °C.

`COc1cc(C=O)c2c(c1)CC(C)O2` (stereo not drawn) had a melting point of 71 to 73 °C.

Consider `NC1(C(=O)O)CCCSC1` (stereo not drawn), for which the melting point fell in the range of 208 to 210 °C.

As to `O=C(CCl)NCC(=O)c1ccccc1`, the melting point is 124 to 126 °C.

Consider `Cc1nc(Cl)cc(Cl)n1`, for which the melting point was 44 to 46 °C.

`Cc1ccc2nc(-c3cccc(C)c3O)[nH]c2c1` showed a melting point of 244 to 246 °C.

In turn, `CC(=O)c1cccc(OCc2cc(C(=O)O)no2)c1` yielded a melting point of 169 to 171 °C.

`CC(=O)CC(=O)Nc1cccnc1Cl`: the melting point is 83 to 85 °C.

The compound `CC(C)(C)c1nn(-c2ccccc2)c(Cl)c1C=O` gave a melting point of 34 to 36 °C.

Turning to `CC1CN(c2ccc(N)cc2)CC(C)O1` (stereo not drawn), the melting point was 73 to 75 °C.

Turning to `CC(=O)c1cc(F)c(N)c(F)c1`, the melting point was 69 to 71 °C.

For the compound `O=C(O)CN1CCCCC1=O`, the melting point lay in the range of 169 to 171 °C.

For `Cc1nnc(NC(=O)CCl)s1`, the melting point was 230 to 232 °C.

In turn, `CN1C(=O)CNC1=O` registered a melting point of 177 to 179 °C.

In turn, `N#CCc1ccc(Oc2ccc(N)cn2)cc1` showed a melting point of 67 to 69 °C.

`NCc1ccccc1CS(=O)(=O)N1CCOCC1` displayed a melting point of 90 to 92 °C.

In turn, `O=C(O)c1cnc2ccsc2c1` yielded a melting point of 259 to 261 °C.

As for `CS(=O)(=O)Nc1ccc(C(=O)CCl)cc1`, the melting point fell in the range of 155 to 158 °C.

In turn, `O=C(O)c1ccc(/C=C/c2ccc3ccccc3n2)cc1` showed a melting point of 263 to 265 °C.

In turn, `N=C(N)c1ccc(N2CCCC2)cn1` came in with a melting point of 209 to 211 °C.

For `Cc1cc(C(F)(F)F)c2c(C)c(C(=O)O)sc2n1`, the melting point lay in the range of 259 to 261 °C.

The compound `O=C(O)c1cccc(S(=O)(=O)N2CCCCC2)c1` displayed a melting point of 178 to 180 °C.

In the case of `CCOC(=O)c1ccn[nH]1`, the melting point fell in the range of 159 to 161 °C.

For the compound `CCCOc1ccc2c(c1)OCC(C(=O)O)C2` (stereo not drawn), the melting point was in the range of 139 to 141 °C.

`CN1C(=O)/C(=N\NC(=O)c2cccnc2)c2ccccc21` yielded a melting point of 195 to 197 °C.

Take `Cn1nnc2cc(CCl)ccc21`: the melting point lay in the range of 83 to 85 °C.

`CN(C)C(=O)c1ccc(C#N)cc1` registered a melting point of 93 to 95 °C.

`CSc1cccc(Cl)c1C#N` yielded a melting point of 114 to 116 °C.

For `Cc1cc(C)c(C(=O)O)c(N)c1`, the melting point lay in the range of 103 to 105 °C.

As to `CCOc1cc(C=CC(=O)O)ccc1OCCOc1ccc(F)cc1`, the melting point was in the range of 105 to 107 °C.

The compound `COc1cc(NC(=O)CCl)cc(OC)c1OC` had a melting point of 104 to 106 °C.

`COc1ccc(F)cc1C(C)N` (stereo not drawn) had a melting point of 74 to 76 °C.

The compound `Cc1cc(Cl)c(N)c(C(=O)O)c1` displayed a melting point of 201 to 203 °C.

Compound `COc1cc(C)sc1C(=O)O` yielded a melting point of 159 to 161 °C.

`COCc1nc(Cl)cc(Cl)n1`: the melting point lay in the range of 43 to 45 °C.

`Nc1nc2cc(Br)ccc2[nH]1`: the melting point was in the range of 148 to 150 °C.

Compound `Cc1cc(Cl)ccc1OCc1n[nH]c(-c2ccccn2)n1` showed a melting point of 174 to 176 °C.

Compound `Cc1nn(C)c(SCC(=O)O)c1C=O` displayed a melting point of 126 to 128 °C.

The compound `O=C(O)CS(=O)(=O)c1cccc(Br)c1` registered a melting point of 139 to 141 °C.

`CC1CN(c2ccccc2C=O)CC(C)O1` (stereo not drawn): the melting point was 94 to 96 °C.

In turn, `CC(C)C(C(=O)O)n1cncn1` (stereo not drawn) displayed a melting point of 177 to 179 °C.

As for `CC(=O)N(CCC(N)=S)C(C)C`, the melting point lay within 104 to 106 °C.

In the case of `NNc1ncnc2c1oc1ccccc12`, the melting point fell in the range of 232 to 234 °C.

With `CC(Cl)c1nnc(-c2ccccc2)o1` (stereo not drawn), the melting point was below 17 °C.

With `C1CN(CCC23CC4CC(CC(C4)C2)C3)CCN1`, the melting point was in the range of 76 to 78 °C.

The compound `COc1ccc(/C=C/C(=O)O)cc1F` gave a melting point of 222 to 224 °C.

The compound `CC(C)NCc1nnc(-c2ccc([N+](=O)[O-])cc2)o1` displayed a melting point of 175 to 182 °C.

In turn, `CC(C)(C)OC(=O)C(C#N)c1ccc([N+](=O)[O-])cn1` (stereo not drawn) showed a melting point of 168 to 170 °C.

For `O=c1cc(CCl)c2cc(O)c(O)cc2o1`, the melting point is 178 to 180 °C.

As for `Cn1nc(C(=O)O)ccc1=O`, the melting point fell in the range of 170 to 175 °C.

`NC(=O)Nc1ccccc1Br`: the melting point was 199 to 201 °C.

Consider `CC(=O)c1cncs1`, for which the melting point fell in the range of 64 to 66 °C.

For the compound `O=C(O)c1cc(Oc2ccccc2)ccn1`, the melting point is 179 to 181 °C.

Turning to `CCOc1ccc(C=CCN)cc1`, the melting point fell in the range of 46 to 48 °C.

The compound `CC(NC(=O)C(Br)C(C)C)c1ccccc1` (stereo not drawn) displayed a melting point of 73 to 75 °C.

`Cn1c(C(=O)O)cc(Cl)c1Cl` displayed a melting point of 178 to 180 °C.

In turn, `Nc1cc(-c2ccccc2I)no1` registered a melting point of 120 to 122 °C.
